Data as given in publication PMC10447463, “Data-mining unveils structure–property–activity correlation of viral infectivity enhancing self-assembling peptides” (Nature Communications, 2023).
Read-outs that look alike come from different tables or passages of the source.

Legend:
[1] = tested on: HIV-1 infection of TZM-bl cells; test: HIV-1 infectivity enhancement assay, β-galactosidase luminescence; assay type: cell-based; conditions: for Rel-EFC: infection relative to EF-C (QCKIKQIINMWQ = 1); for Log10 Infection Rel EFC: log10 of infection relative to EF-C; for Log Infectivity: Log10 infection relative to EF-C, asymmetric std dev errors; for Log Infectivity / Abs. Inf.: TZM-bl cells; for Log10 Infection Rel EF-C: HIV-1 infection of TZM-bl cells; for Log10 of Rel to EFC (Feb2021): Log10 of infection relative to EF-C; for Abs. Inf.: absolute HIV-1 infection signal, β-galactosidase luminescence; for Abs. Infection at 0.26 µM / Infect 1 0.26 µM / Infect 2 0.26 µM / Infect 3 0.26 µM: peptide 0.26 µM; for Abs. Infection at 0.26 µM / Abs. Infection at 1.3 µM: mean of n = 3, Figure 4A; for Infect 1 0.26 µM / Infect 1 .3 µM: replicate 1, absolute infection signal; for Infect 1 0.26 µM / Infect 2 0.26 µM / Infect 3 0.26 µM / Infect 1 .3 µM / Infect 2 1.3µM / Infect 3 1.3 µM: Figure 4A; for Infect 2 0.26 µM / Infect 2 1.3µM: replicate 2, absolute infection signal; for Infect 3 0.26 µM / Infect 3 1.3 µM: replicate 3, absolute infection signal; for Abs. Infection at 1.3 µM / Infect 1 .3 µM / Infect 2 1.3µM / Infect 3 1.3 µM: peptide 1.3 µM
[2] = β-sheet content by ATR-FT-IR; assay type: physicochemical; conditions: for b -sheet / %: Fig. S7 panel A, β-sheet content by ATR-FT-IR
In short: (§1)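 Fluorescence at 470 nm (365 nm excitation) was read 20 min after adding fluorescamine to DMSO-dissolved filtrate and unfiltered PNF, then CR computed as 100 − 100 × filtrate/original. Secondary structure came from ATR FT-IR spectra of lyophilized PNF powder.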

[3] = Zeta-potential measurement; assay type: physicochemical
In short: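 PBS pH 7.4, 1 mg/mL peptide (DMSO stock), 1 d RT aggregation; diluted in 1 mM KCl pre-read; mobility → zeta (Smoluchowski); n = 3, 2 expts averaged.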

[4] = Turbidity, derived count rate of scattered light; assay type: physicochemical; conditions: for Count Rate / kcps: derived count rate of scattered light at 633 nm, 173°, from zeta-potential measurement, 0.1 mg/mL in 1 mM KCl after 1 d at 1 mg/mL in PBS, turbidity / microscopic aggregation, mean of triplicate
In short: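 One-day room-temperature aggregation at 1 mg/mL in PBS (pH 7.4) preceded measurement; samples then went into 1 mM KCl. Triplicates per sample, two independent experiments averaged.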

[5] = Conversion rate (CR) assay with fluorescamine; assay type: physicochemical; set-up: key to CR: % = 100−100×filtrate/original fluorescence intensity; conditions: conversion rate, fluorescamine assay; for CR / %: Fig. S7 panel B
In short: as §1

[6] = Fig. S7 panel A (plotted against β-sheet content)
[7] = Fig. S7 panel B (plotted against CR), rounded to two decimals
[8] = Log10 of infection rate relative to EF-C, Figure 3A source data
[9] = infection rate relative to EF-C, log10, data of Figure 2D
[10] = infection rate relative to EF-C, log10, source data of Figure 2C
[11] = zeta potential of peptide assemblies
[12] = zeta-potential of peptide, source data of Figure 2C
[13] = zeta-potential of the peptide assemblies, mean, Figure 3A source data
[14] = Log10 of derived count rate of scattered light (turbidity)
[15] = log10 of derived count rate of scattered light (turbidity)
[16] = logarithm of count rate in kcps
[17] = turbidity, Log10 of derived count rate of scattered light, Figure 3A source data

Substance	Rel-EFC ([1]; 1.3 µM peptide)	Log10 Infection Rel EFC ([1]; 1.3 µM peptide)	Log Infectivity [1, 6]	Log Infectivity [1, 7]	Log10 Infection Rel EF-C [1, 8]	Log10 Infection Rel EF-C [1, 9]	Log10 Infection Rel EF-C [1, 10]	Log10 of Rel to EFC (Feb2021) ([1]; all peptides of FigS16)	b -sheet / % [2]	Zeta-Pot. [3, 11]	Zeta-Potential / mV [3, 12]	Zeta-Potential / mV [3, 13]	Log10 Count Rate [4, 14]	Count Rate / kcps [4]	Log10 Count Rate [4, 15]	Log10 Count Rate [4, 17]	CR / % [5]	CR [5]	Abs. Inf. [1]	Zeta-Pot. [3]	further results
CKIKQIINMWQ	1,24	0,09	0.09484	0.09	0.09	0.09484	0.09484	0.09	51%	13.4	10.55 mV	13.4 mV	3.92	8317 kcps	3.92	3.92	50%	50			Log10 Count Rate [4, 16]: 3.92
CKIW	0,05	-1,29	-1.286	-1.29	-1.29	-1.286	-1.286		46.02%		-2.772 mV	-3.71 mV	0.5051	3 kcps	0.5051	0.5051	48.3%	48.26	290	-3.71	
CSISIQI	0,06	-1,25	-1.252	-1.25	-1.25	-1.252	-1.252		58.57%	-25.93	-26.07 mV	-25.93 mV	4.01	10241 kcps	4.01	4.01	79.3%	79.31			Abs. Infection at 0.26 µM [1]: 1390; Infect 1 0.26 µM [1]: 1340; Infect 2 0.26 µM [1]: 1160; Infect 3 0.26 µM [1]: 1670; Abs. Infection at 1.3 µM [1]: 3087; Infect 1 .3 µM [1]: 3310; Infect 2 1.3µM [1]: 2600; Infect 3 1.3 µM [1]: 3350; Log10 Count Rate [4, 16]: 4.01
CSISIQINM	0,2	-0,7	-0.7027	-0.7	-0.7	-0.7027	-0.7027	-0.7	55.93%	-19.4	-21.18 mV	-19.4 mV	3.517	3291 kcps	3.517	3.517	86%	86			
EIEIQINM	0,04	-1,44	-1.44	-1.44	-1.44	-1.44	-1.44		53.87%		-21.58 mV	-23.33 mV	2.127	134 kcps	2.127	2.127	78.4%	78.43	203.3	-23.33	Abs. Infection at 0.26 µM [1]: 203.3; Infect 1 0.26 µM [1]: 203.33; Infect 2 0.26 µM [1]: 123.33; Infect 3 0.26 µM [1]: 283.33; Abs. Infection at 1.3 µM [1]: 203.3; Infect 1 .3 µM [1]: 253.33; Infect 2 1.3µM [1]: 173.33; Infect 3 1.3 µM [1]: 183.33
EIEIQINMWQ	0,13	-0,88	-0.881	-0.88	-0.88	-0.881	-0.881	-0.88	53.91%		-19.93 mV	-19.13 mV	3.102	1264 kcps	3.102	3.102	89.9%	89.92	2137	-19.13	infectivity enhancement relative to EF-C ([1]; 1.3 µM peptide): 13%; Log10 of Rel to EFC (Feb2021) ([1]; second listing, peptides with TEM 2cat 0): -0.88; beta sheet ([2]; peptides with TEM 2cat 0): 54; Zeta Count Rate ([4]; peptides with TEM 2cat 0): 1264 kcp
EIKIQINM	0,1	-1	-1.001	-1	-1	-1.001	-1.001		48.03%		-20.62 mV	-22.33 mV	3.45	2816 kcps	3.45	3.45	50.7%	50.72	3607	-22.33	
